This is an account of results in PubChem BioAssay (NCI).

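Growth conditions: 96-well plates. Treatment: test compound, 48 hours, 5 concentrations. Analysis: linear interpolation between bracketing concentrations; unreached endpoints set to highest concentration. The concentration for 50% growth inhibition is given as GI50. Definition used: TGI = concentration required for complete inhibition of growth.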 Some results are limits rather than exact numbers.

What all share (assay): NCI-60 cell line screen, 48 h
Assay [1] deals with HT29 colon.
The subject of assay [2] is RXF 393 renal.
Assay [3] deals with SF-295 CNS.
In assay [4] the test system is SK-MEL-2 melanoma.
Assay [5] concerns SK-MEL-28 melanoma.
Assay [6] deals with SNB-75 CNS.
In assay [7] the test system is UACC-62 melanoma.
In assay [8] the test system is ACHN renal.
For assay [9], the system named is HL-60(TB) leukemia.
The subject of assay [10] is MDA-MB-231 breast.

Consider `COc1cc2ccc(CC(N)=O)cc2cc1OC`, for which the TGI in [1], in [2], in assay [3], in assay [4], in assay [5] and in assay [6] was more than 100 µM throughout. Also, the TGI in assay [7] was more than 100 µM.
Regarding `Cc1cc2c(=O)cc(-c3ccc(F)cc3)oc2c(C(=O)O)c1C`, the TGI in [8], in assay [1], in assay [2], in assay [3], in assay [4] and in assay [5] was more than 100 µM throughout. In addition, the TGI in assay [6] and in assay [7] was more than 100 µM in each case.
Take `O=C(Sc1sc(=S)sc1SC(=O)c1ccccc1)c1ccccc1`: the TGI in assay [8], in assay [9], in assay [1], in assay [2], in [3] and in [4] was more than 100 µM throughout. In addition, the TGI is more than 100 µM in assay [5], 78.3 µM in assay [6] and 53 µM in [7].
Turning to `CCOP(=O)(CC(=O)C1=C(O)C(CCCCNC(=O)OC(C)(C)C)N(Cc2ccccc2)C1=O)OCC` (configuration not stated), the TGI in assay [8], in [9], in [1], in assay [2], in assay [3] and in assay [4] was more than 100 µM throughout. Besides, the TGI in assay [5], in assay [6] and in assay [7] was more than 100 µM throughout.
As for `CCN(CC)CCC(=O)/C=C/c1ccc(C)cc1`, the TGI in assay [8] came to 27.5 µM; in [9], 33.6 µM; in assay [1], 33 µM; in assay [2], 29.2 µM; in [3], 34.6 µM; in assay [5], 28.1 µM. The TGI in [6] and in assay [7] was 30.9 µM in each case.
Regarding `CC(=O)NC1=C(Sc2ccc(Cl)cc2)C(=O)c2ccccc2C1=O`, the TGI in assay [8] amounted to 4.85 µM; in assay [9], 1.63 µM; in [1], 25.6 µM; in [10], 10.2 µM; in [2], 4.65 µM; in assay [3] it was 20.9 µM. Besides, the TGI in [4] was found to be 16 µM; in assay [5] it was 11.9 µM; in assay [7], 13.3 µM.
Take `COc1cc2c(cc1OC)[C@@H]([C@H](O)c1ccccc1)NCC2`: the TGI in assay [8], in assay [9], in assay [1], in assay [2], in [3] and in [4] was more than 100 µM throughout. For the same compound, the TGI in assay [5], in [6] and in [7] was more than 100 µM each time.
On to `C/C=C1\CCC2c3[nH]c4ccccc4c3CCN2C1` (configuration not stated), for which the TGI in assay [8], in assay [9], in [1], in assay [2], in [3] and in assay [4] was more than 100 µM each time. For the same compound, the TGI in assay [5], in assay [6] and in assay [7] was more than 100 µM each time.
As for `Cc1cc2c(cc1C)[n+](Cc1ccc3ccccc3n1)cn2Cc1ccc2ccccc2n1`, the GI50 in assay [8] was 3.06 µM; in assay [1], 0.331 µM; in assay [10], 1.09 µM; in assay [2], 1.17 µM; in [3] it was 1.12 µM; in assay [4], 1.57 µM. Also, the figures for the GI50 in assay [5], in assay [6] and in [7] were 0.992 µM, 1.43 µM and 0.612 µM, respectively. For the same compound, the TGI in [8] was found to be 10.6 µM; in assay [1], 1.63 µM; in [10] it was 2.52 µM; in [2], 2.45 µM; in assay [3], 2.63 µM; in assay [4] it was 3.12 µM. The figures for the TGI in assay [5], in [6] and in assay [7] were 2.47 µM, 3.87 µM and 2.1 µM, respectively.
Regarding `O=C(Nc1cccc(-n2cc(-c3ccncc3)c(-c3ccc(O)c(Cl)c3)n2)c1)c1ccc(Cl)c(Cl)c1`, the GI50 in assay [8] is 4.62 µM; in assay [1] it was 26 µM; in assay [10], 1.52 µM; in assay [3], 5.94 µM; in [4], 11.6 µM; in assay [5] it was 3.45 µM. In addition, the GI50 in [6] is 0.977 µM; in assay [7], 10.8 µM. The TGI in assay [8] is more than 100 µM; in [1], more than 100 µM; in assay [10], 8.58 µM; in assay [3], 86.5 µM; in [4] it was 38.6 µM; in [5], 19.4 µM. Moreover, the TGI in assay [6] came out at 18.4 µM; in assay [7], 47.6 µM.
In the case of `CCCCCCCCCCCCCCNCC(OCC)OCC`, the TGI was determined as 27 µM in assay [8]; 11.5 µM in [9]; 11.4 µM in assay [1]; 22.9 µM in [2]; 30.6 µM in [3]; 28.6 µM in assay [4]. Besides, the TGI in assay [5] was found to be 32.5 µM; in [6], 23 µM; in assay [7], 33 µM.
For the compound `CN1C(=O)C(=CN(C)c2ccccc2)C(=O)N(C)C1=O`, the TGI in [8], in assay [9], in assay [2], in assay [3], in assay [4] and in assay [5] was more than 100 µM throughout. Also, the TGI in assay [6] and in [7] was more than 100 µM each time.
Turning to `C#CC(=O)OCC#CCOC(=O)C#C`, the TGI was 33 µM in assay [8]; 42.7 µM in assay [1]; 75.6 µM in assay [10]; 36.9 µM in assay [2]; more than 100 µM in assay [3]; 40.1 µM in [4]. In addition, the TGI in [7] stood at 56.7 µM.
For the compound `CCc1ncnc2cc(OCC3CO3)c(OC)cc12` (configuration not stated), the TGI is 21.6 µM in assay [8]; more than 100 µM in assay [1]; 60.9 µM in assay [10]; 18.7 µM in assay [2]; 30.3 µM in assay [3]; 12.4 µM in assay [4]. Moreover, the TGI in assay [5] came to 37.4 µM; in assay [6], 53.7 µM; in assay [7], 18.4 µM.
For the compound `COC(=O)C(=O)C(CC(=O)Nc1cccc(C(F)(F)F)c1)C(=O)OC` (configuration not stated), the TGI in [8], in [9], in assay [2], in [4], in assay [5] and in assay [6] was more than 100 µM in each case. This compound returned a TGI in assay [7] of more than 100 µM.
For `COc1ccc(C(=O)OC2C(OC3C(O)COC(O[C@H]4C[C@H]5[C@@H]6CC=C7C[C@@H](O)CC[C@]7(C)[C@H]6CC[C@]5(C)[C@H]4[C@H](C)C(=O)CCC(C)C)C3OC(C)=O)OCC(O)C2O)cc1` (some centres not stated), the GI50 is 0.00747 µM in [8]; less than 0.003 µM in assay [1]; 0.0313 µM in [10]; less than 0.003 µM in assay [2]; less than 0.003 µM in assay [3]; less than 0.003 µM in [4]. In addition, the GI50 in assay [5], in assay [6] and in [7] was less than 0.003 µM throughout. Also, the TGI in assay [8] is 9.22 µM; in assay [1], 5.91 µM; in assay [10] it was 4.55 µM; in assay [2] it was less than 0.003 µM; in assay [3], less than 0.003 µM; in assay [4] it was 0.0101 µM. The values for the TGI in assay [5], in [6] and in assay [7] were less than 0.003 µM, 4.36 µM and less than 0.003 µM, respectively.
On to `COc1cc2c(cc1O)C(c1cc(O)c(O)c(OC)c1)C(O)(C(=O)O)C(CO)C2O` (configuration not stated), for which the TGI in assay [8], in [1], in [10], in assay [2], in assay [3] and in assay [4] was more than 100 µM each time. Further, the TGI in [5], in assay [6] and in [7] was more than 100 µM each time.
As for `Oc1ccccc1C=Nc1ccccc1N=Cc1ccccc1O.[Cu+2]`, the GI50 in [8] was 5.64 µM; in [1] it was 13.7 µM; in assay [10], 6.08 µM; in assay [2], 13.2 µM; in [3], 5.91 µM; in [4], 5.81 µM. In addition, the GI50 in assay [5] was 10.5 µM; in assay [6], 5.15 µM; in assay [7] it was 3.13 µM. Further, the TGI in assay [8] came out at 22.2 µM; in assay [1], 32 µM; in assay [10], 21.2 µM; in assay [2], 26.6 µM; in assay [3] it was 19.9 µM; in [4], 19.5 µM. Besides, the TGI amounted to 23.2 µM in [5], 19.3 µM in assay [6] and 14.2 µM in [7].
Consider `Cc1cn2c(/C=N/N=C(N)N)c(-c3ccsc3)nc2s1`, for which the GI50 in assay [8] is 3.08 µM; in [1], 18.6 µM; in assay [10] it was 3.94 µM; in [2], 17.3 µM; in assay [3] it was 9.98 µM; in assay [4] it was 28.3 µM. Moreover, the GI50 in assay [7] was 11.3 µM. Moreover, the TGI in assay [8] is 13.6 µM; in [1], more than 100 µM; in assay [10] it was 17.1 µM; in [2], 33.5 µM; in [3], 22.9 µM; in [4] it was more than 100 µM. This compound also yielded a TGI in assay [7] of 23.4 µM.
For the compound `O=C(CC1C(=O)Nc2ccccc2S1(=O)=O)Nc1cccc(Cl)c1` (configuration not stated), the TGI was 33.5 µM in assay [8]; 44.1 µM in assay [9]; 32.3 µM in [1]; 31.7 µM in assay [2]; 54.3 µM in assay [3]; 84 µM in assay [4]. For the same compound, the results for the TGI in [5], in [6] and in [7] were 38.7 µM, 31.8 µM and 30.3 µM, respectively.
For `CC12CC(Sc3ccccc3N1)c1ccccc1O2` (configuration not stated), the TGI in assay [8] worked out at 31 µM; in [9] it was 28.8 µM; in [1] it was 35 µM; in assay [2] it was 30.2 µM; in assay [3] it was 29.8 µM; in assay [4], 25.4 µM. For the same compound, the TGI is 30.4 µM in [5], 53.3 µM in [6] and 30.7 µM in [7].
In the case of `COc1ccc(-c2nnc(Nc3nc(O)c(C4=c5cc(F)ccc5=NC4=O)s3)o2)cc1`, the GI50 in assay [8] is 35.3 µM; in [1], 40.5 µM; in assay [10] it was 19.8 µM; in [2], 65.8 µM; in assay [3], 29.5 µM; in assay [4], 33.7 µM. For the same compound, the GI50 in assay [5] was more than 100 µM; in [7] it was 35.1 µM. Moreover, the TGI in assay [8] is more than 100 µM; in [1] it was more than 100 µM; in [10] it was 52.2 µM; in assay [2], more than 100 µM; in [3], more than 100 µM; in assay [4] it was more than 100 µM. The TGI in assay [5] and in [7] was more than 100 µM throughout.
In the case of `Cc1ccc(S(=O)(=O)SCc2ccccc2)cc1`, the TGI is more than 100 µM in [8]; 5.76 µM in assay [9]; 47.1 µM in assay [1]; 69.2 µM in assay [2]; more than 89.7 µM in [3]; more than 75.6 µM in assay [4]. The TGI in assay [5] is more than 100 µM; in [6], more than 84.2 µM; in assay [7], more than 67.9 µM.
On to `O=C(NC(=O)c1cc2cc(Br)cc(Br)c2oc1=O)Oc1ccccc1`, for which the TGI in assay [8] was 72 µM; in assay [1], more than 100 µM; in [2], 83.3 µM; in assay [3] it was more than 100 µM; in assay [5], more than 100 µM; in assay [6] it was 33.6 µM. Moreover, the TGI in assay [7] is more than 100 µM.
Regarding `Cc1cc(NS(=O)(=O)c2ccc(Nc3c4ccccc4nc4c(C(=O)Nc5ccc(S(=O)(=O)N=C(N)N)cc5)ccc(Cl)c34)cc2)no1`, the TGI in assay [8] is more than 100 µM; in assay [9] it was 68.8 µM; in assay [1], more than 100 µM; in assay [2] it was 72.9 µM; in assay [3], more than 100 µM; in assay [5], more than 100 µM. The TGI in [6] turned out to be 73.2 µM; in assay [7] it was 73.5 µM.
`O=C1c2c(c3c4ccccc4[nH]c3c3[nH]c4ccccc4c23)C(=O)N1Cc1ccccc1`: the TGI in [8] worked out at 11 µM; in assay [1], 14.5 µM; in assay [2], 4.12 µM; in assay [3], 13.3 µM; in [4], 10.6 µM; in [5], 11.7 µM. Also, the results for the TGI in [6] and in assay [7] were 8.01 µM and 16.2 µM, respectively.
